Data as given in US20060270880A1, “7-Azaindole derivatives as cox2 inhibitors” (priority 2003, published 2006).

Molecular target: T1, microsomal h-COX2 (Homo sapiens, UniProt P35354)
T1 construct: made in house; host or cells: baculovirus infected SF9 cells (microsomal preparation)
T1 sequence (P35354 18-604): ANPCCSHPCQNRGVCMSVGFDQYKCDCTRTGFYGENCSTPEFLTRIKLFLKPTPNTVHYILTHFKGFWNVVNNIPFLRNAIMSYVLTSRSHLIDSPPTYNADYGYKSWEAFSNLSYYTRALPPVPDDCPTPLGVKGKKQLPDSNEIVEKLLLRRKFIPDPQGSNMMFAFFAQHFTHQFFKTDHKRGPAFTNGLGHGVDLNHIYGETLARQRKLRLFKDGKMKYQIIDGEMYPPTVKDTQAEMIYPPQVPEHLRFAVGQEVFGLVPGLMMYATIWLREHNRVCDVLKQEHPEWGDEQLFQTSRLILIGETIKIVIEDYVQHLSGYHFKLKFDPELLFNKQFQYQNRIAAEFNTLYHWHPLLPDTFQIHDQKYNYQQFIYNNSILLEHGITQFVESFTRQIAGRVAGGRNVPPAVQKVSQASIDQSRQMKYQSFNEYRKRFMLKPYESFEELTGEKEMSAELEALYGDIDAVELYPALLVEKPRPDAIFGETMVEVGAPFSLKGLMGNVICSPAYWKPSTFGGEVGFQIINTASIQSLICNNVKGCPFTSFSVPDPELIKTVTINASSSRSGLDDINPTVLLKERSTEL
Assay: Microsomal assay: inhibition of microsomal h-COX2 (PGE2 by EIA)
Type: biochemical
Conditions: microsomal preparation from baculovirus infected SF9 cells; 1 hour preincubation; 0.1 μM arachidonic acid, 10 minutes; read-out: IC50 values for inhibition of COX-2
Description: Inhibitory activity against microsomal h-COX2 was assessed against a microsomal preparation from baculovirus infected SF9 cells. An aliquot of microsomal preparation was thawed slowly on ice and a 1/40,000 dilution prepared from it into the assay buffer (sterile water, degassed with argon containing 100 mM HEPES (pH 7.4), 10 mM EDTA (pH7.4), 1 mM phenol, 1 mM reduced glutathione, 20 mg/ml gelatin and 0.001 mM Hematin). Once diluted the enzyme solution was then sonicated for 5 seconds (Branson sonicator, setting 4, 1 cm tip) to ensure a homogeneous suspension. 155 μl enzyme solution was then added to each well of a 96-well microtitre plate containing either 5 μl test und (40× required test concentration) or 5 μl DMSO for controls. Plates were then mixed and incubated at room temperature for 1 hour. Following the incubation period, 40 μl of 0.5 μM arachidonic acid was added to each well to give a final concentration of 0.1 μM. Plates were then mixed and incubated for exactly 10 minutes (room temperature) prior to addition of 25 μl 1M HCl (hydrochloric acid) to each well to stop the reaction. 25 μl of 1M NaOH (sodium hydroxide) was then added to each well to neutralise the solution prior to determination of PGE2 levels by enzyme immunoassay (EIA).

`CS(=O)(=O)c1ccc(-c2ccc3ccn(-c4ccc(F)cc4)c3n2)cc1` [Example 13] showed an IC50 of at most 500 nM.

`CS(=O)(=O)c1ccc(-c2ccc3ccn(-c4ccccc4)c3n2)cc1` [Example 2, 1-Phenyl-6-[4-(methylsulfonyl)phenyl]-7-azaindole] gave an IC50 of at most 500 nM.

Work on `Cc1cn(CC2CCCCC2)c2nc(-c3ccc(S(C)(=O)=O)cc3)ccc12` [Example 6, 1-{cyclohexanemethyl)-3-methyl-6-[4-(methylsulfonyl)phenyl]-7-azaindole] yielded an IC50 of at most 500 nM.

In the case of `CS(=O)(=O)c1ccc(-c2ccc3ccn(Cc4cccnc4)c3n2)cc1` [Example 14], the IC50 is reported as at most 500 nM.

For `CS(=O)(=O)c1ccc(-c2ccc3ccn(Cc4ccc(Cl)cc4)c3n2)cc1` [Example 18], the IC50 was at most 500 nM.

Work on `CS(=O)(=O)c1ccc(-c2ccc3ccn(Cc4ccncc4)c3n2)cc1` [Example 15] yielded an IC50 of at most 500 nM.

`CS(=O)(=O)c1ccc(-c2ccc3ccn(CC4CCCCC4)c3n2)cc1` [Example 1, 1-(cyclohexanemethyl)-6-[4-(methylsulfonyl)phenyl]-7-azaindole] was tested, and the IC50 was at most 500 nM.

`CCC(CC)Cn1ccc2ccc(-c3ccc(S(C)(=O)=O)cc3)nc21` [Example 10] gave an IC50 of at most 500 nM.

`CS(=O)(=O)c1ccc(-c2ccc3ccn(Cc4ccccn4)c3n2)cc1` [Example 16] showed an IC50 of at most 500 nM.

With `CS(=O)(=O)c1ccc(-c2ccc3c(C=O)cn(CC4CCCCC4)c3n2)cc1` [Example 4, 1-(cyclohexanemethyl)-6-[4-(methylsulfonyl)phenyl]-7-azaindole-3-carboxaldehyde] the IC50 was at most 500 nM.

Work on `CS(=O)(=O)c1ccc(-c2ccc3ccn(S(=O)(=O)c4ccccc4)c3n2)cc1` [Example 9] yielded an IC50 of at most 500 nM.

Compound `CS(=O)(=O)c1ccc(-c2ccc3ccn(Cc4ccccc4)c3n2)cc1` [Example 12] has an IC50 of at most 500 nM.

Work on `CC(C)Cc1cn(CC2CCCCC2)c2nc(-c3ccc(S(C)(=O)=O)cc3)ccc12` [Example 3, 1-(cyclohexanemethyl)-3-(2-methylprop-1-yl)-6-[4-(methylsulfonyl)phenyl]-7-azaindole] yielded an IC50 of at most 500 nM.
